From patent publication US6590123B2, “Aminobenzoic acid derivatives having anti-tumorigenic activity, methods of making and using the same” (Mount Sinai School of Medicine of New York University, priority 1998, dated 2003) come the findings set out here.

≈ marks a conversion by molar mass, not a printed value.

Experiment [1] has as its system EL4 murine leukemia lymphoma. The experiment is described as follows: Cytotoxicity, ID50 and ID90 by trypan blue exclusion. The format is cell-based. To be noted: 48 hr. Here is the method:
(§1) All cell lines, with the exception of human SP cells, a biphenotypic leukemic cell line (reference 10 & 11), were obtained from the American Tissue Culture Collection (Rockville, Md.) and were cultured under conditions recommended by the vendor. EL4 murine leukemia lymphoma (as suspension) and B16 mouse melanoma (as monolayer) cell lines were cultivated in RPMI-1640 medium supplemented with 10% fetal bovine serum (FBS), penicillin (250 μ/ml) and streptomycin (250 μml); MOT, a non-tumor proliferative myocardial cell line from rat and NIH 3T3, a non-malignant and proliferative fibroblast cell line from mouse were both cultured as monolayers in Dulbecco's Modified Eagle's Medium with 10% heat inactivated calf serum. CEM, a human acute T-cell leukemic cell line, was cultured as a suspension in Iscove's Dulbecco's Medium with 10% heat inactivated fetal calf serum and antibiotics. […]
(§2) Cells in suspension culture were seeded into 96-well microplates (Falcon, Oxnard, Calif.) at 10^5 cell per well, followed, by treatment with 0-10 μg/ml of the candidate compounds for 48 hr at 37° C. with total volume of 250 μl per well. Cell viability was assessed by trypan blue exclusion.
(§3) The ID50 and ID90 was determined in duplicate in every set of experiments, and each experiment was repeated 3 times under identical conditions. […]

The subject of a further experiment is SP cells. The description is as above. The format is cell-based. Particulars: Human MDS, 48 hr. Here is the method: as §1, §2, §3
Experiment [2] concerns mitotic spindles (β-tubulin) in CEM cells. The experiment is described as follows: Immunofluorescent detection of mitotic spindles. The format is cell-based, human. To be noted: for Antimicrotubule: CEM cells, 0.025 μg/ml, immunofluorescent staining. The protocol:
[…] After incubation, cells were washed twice in PBS. Cell pellets were resuspended in drug-free medium and incubated for 48 hr at 37° C. Cell viability, morphology, mitotic spindles, cell cycle distribution and apoptosis were determined 24 hr and 48 hr post pulse exposure.
CEM cells incubated in the absence or presence of 3-BAABU were collected and centrifuged in a Cytospin at 700 g for 5 min. The slides were air dried and fixed with methanol for 20 min at −20° C. The slides were incubated in PBS containing. 1% BSA at 37° C. for 30 min. After washing with PBS for 3 min, cells on the slides were covered with 30 μl anti-human β-tubulin monoclonal antibody (4 μg/ml) (Accurate Antibody, Westbury, N.Y.) and placed in a humid chamber at room temperature for 60 min. The slides were washed three times for 3 min each in PBS followed by staining with 10 μl FITC labeled goat anti-mouse antibody (Coulter, Hialeah, Fla.) in a humid chamber at room temperature for 60 min. After washing in, PBS, the immunofluorescent stained cells were visualized under a fluorescence microscope (Model MC 63, Zeiss, Germany).

Regarding `NC(=O)NC(=O)c1cccc(NC(=O)CBr)c1` [Compound 8, 3-Bromoacetoamido, benzoylurea], the ID90 in experiment [1] came out at 0.02 ± 0.004 µg/mL (≈ 0.0666 µM); with SP cells it was 0.71 ± 0.11 µg/mL (≈ 2.37 µM). Also, the Antimicrotubule entry in experiment [2] (Continuous Exposure (24 hr; 48 hr in footnote)) and in experiment [2] (Pulse Exposure (1 hr)) was “++++ (++++: >75% cells were affected)” throughout. Moreover, in experiment [2] (mitotic CEM cells arrested by the compound), the “formation of mitotic spindles, immunofluorescent staining for β-tubulin” value is “none of them showed positive staining for mitotic spindles or astral microtubules”.
